{
  "source": "patent US20120178147A1",
  "about": "“MICROBIAL CULTURES AND METHODS FOR ANAEROBIC BIOREMEDIATION” (priority 2009, published 2012)",
  "system": "sediment microcosms",
  "experiment": "Effect of TCC, TCS and BES on TCE dechlorination in sediment microcosms and cultures derived from them",
  "type": "cell-based",
  "description": "In this study, microcosm is defined as: anaerobic airtight serum bottles with sediment samples, anaerobic medium, electron donor, and a chlorinated compound used as an electron acceptor. Four microcosms were set up in the anaerobic glove chamber with H2 concentration of 3% (Coy laboratory products Inc. Grass Lake, Mich.). Ten gram of homogeneously mixed sediment from either core A or core D were transferred independently into a 160 ml sterile serum bottle, and 90 ml anaerobic media with vitamin solution and 2 mM lactate were added. One hundred μL of 20 mg/L TCC stock solution in methanol and 100 μL of 20 mg/L TCS stock solution were added by pipette (Eppendorf, Calif.) to two of the four microcosms. Microcosms were capped with thick black butyl rubber stoppers and aluminum crimps. 4.5 μL pure TCE was injected with airtight syringe (Hamilton Company, Reno, Nev.) into each serum bottle. On day 130, in order to inhibit methane production in the sediment microcosms, 25 mM BES was added in to sediment-A microcosm and sediment-D microcosm with TCC and TCS with airtight syringe (Hamilton Company, Reno, Nev.). Microcosms were stored in the dark and incubated at 30° C.\nProduction of Sediment-Free Cultures. To establish sediment-free cultures from core A and core D sediment microcosms, the microcosms were shaken vigorously, and the solids were allowed to settle down. Then, using 1-inch, 21-gauge sterile needles, […] liquid (10 ml) were transferred into 89 ml sterile medium with the following contents: anaerobic medium, ATCC vitamin mix, and vitamin B12, in 160-ml serum bottles. Then, 1 ml each of 500-mM lactate stock solution and 35-μL TCE stock solution (1 mol/L in methanol) were added to form a 100 ml culture in 160-ml serum bottle. Three sediment cultures were derived from each sediment microcosm, and 12 sediment-free cultures were produced (FIG. 1). For organizational purposes, we refer to the sediment-free cultures generated from sediment-A microcosms as SCA and the sediment free cultures generated from sediment-D microcosms as DehaloR̂2, in the figures herein, the DehaloR̂2 are referred to as “SCD”. Thus, the term “SCD” and DehaloR̂2 are used interchangeably herein as the composition “SCD” was renamed “DehaloR̂2” during the course of investigation. The sediment-free cultures were kept in the dark and incubated at 30° C. After all the chlorinated electron acceptors were consumed, the cultures were re-spiked with TCE and electron donors.\nBES (2-bromoethanesulfonate) is an efficient inhibitor for the metabolism of methanogens in methanogenetic cultures because it is a structural analog and competitive inhibitor of coenzyme M, which is only found in methanogens (Dimarco et al., 1990; Sparling and Daniels, 1987). Different concentrations of BES have been used by researchers. […] In this study, in order to determine if the cause for incomplete reductive dechlorination was competition for electron donor between methanogens and TCE dechlorinating microorganisms in the microcosms, I added 25 mM BES, 70 μmol of TCE, and 5 mM lactate into two sediment microcosms, sediment-A and sediment-D with TCC and TCS. In two other sediment microcosms, I added 70 μmol of TCE and 5 mM lactate without BES.",
  "data": [
    {"smiles": "O=S(=O)(O)CCBr", "note": "[BES, 2-bromoethanesulfonic acid]", "values": [
      {"measurement": "effect on TCE reductive dechlorination", "setting": "25 mM BES", "result": "exerted some inhibition on TCE reductive dechlorination"},
      {"measurement": "methane production", "setting": "25 mM BES, two sediment microcosms", "result": "no methane was produced"},
      {"measurement": "effect on TCE dechlorination rates in sediment-free cultures", "setting": "cultures from microcosms amended with TCC, TCS, BES", "result": "slow down TCE dechlorination rates"}
    ]}
  ]
}
